How the values were obtained:
Format in all cases: cell-based
[1] = system: Normal human epidermal keratinocytes; experiment: Synthesis of total epidermal glycosaminoglycans (incorporation of 3H-glucosamine); settings: 1.5 mM, 72 h incubation
Method: Normal human epidermal keratinocytes are cultivated in SFM complete medium for 24 hours. The medium is then removed, and replaced with SFM medium without supplements containing the product PK11195 or the pharmacological reference. It is incubated for 72 h at 37° C. Tritiated glucosamine (D-[6-^3H]-glucosamine, Amersham TRK398 (1.3 Tbq/mmol, 35 Ci/mmol) is added for the last 24 hours of incubation. The glycosaminoglycans are extracted from the culture medium and from the deposited matrix, with a chaotropic buffer, then purified by ion-exchange chromatography. The radioactivity incorporated in the […] molecules (mostly GAGs) is counted by liquid scintillation. The results are expressed as percentage change in synthesis of the GAGs relative to the control.

[2] = system: Normal human epidermal keratinocytes; experiment: Differentiation of keratinocytes: determination of transglutaminase K1 (TGK1) activity by radioassay
Method: (§1) Normal human epidermal keratinocytes are cultivated at 37° C. in keratinocyte-SFM medium (Gibco BRL 3701022) supplemented with EGF (epidermal growth factor) and pituitary extract, with or without calcium supplement (1.5 mM). After culture for 24 hours, the medium is replaced with medium containing the actives to be tested or reference substances. Culture is continued for 96 hours. The transglutaminase K1 (TGK1) activity is evaluated by radioassay, by measuring the covalent addition of tritiated putrescine to casein (acceptor protein) for 1 h 30 min at 37° C. The casein is precipitated with TCA (trichloroacetic acid) on a dry filter and then counted in liquid scintillation. The proteins in each sample are determined by means of a kit (BioRad 500-0116). Statistical analysis of the data is performed by analysis of variance (ANOVA) using Dunnett's multiple comparison test.
(§2) The molecule PK11195 (or 1-(2-chlorophenyl)-N-(1-methyl-propyl)-3-isoquinoline carboxamide), a specific inhibitor of the peripheral benzodiazepine receptor, was tested at respective concentrations of 10^−4 M and 10^−6 M. The active was added to the keratinocyte culture medium, containing calcium or not containing calcium. The effect of a medium alone containing 1.5 mM of calcium (pro-differentiation agent) was used as a positive control of differentiation. […]

[3] = system: Normal human epidermal keratinocytes; experiment: Cellular viability of keratinocytes in the TGK1 differentiation cultures; settings: 10^−6 M; medium with calcium (1.5 mM); 96 h culture; control = 100%
Method: as §1, §2

Row | SMILES | Incorporation of 3H-glucosamine, CPM ([1]; control 10624 CPM) | Incorporation of 3H-glucosamine, Percentage/control ([1]; p<0.01) | TGK1 activity ([2]; 10^−6 M, medium with calcium (1.5 mM), 96 h culture, control = 100%, *p<0.05) | decrease in TGK1 activity ([2]; medium with retinol 10^−6 M (anti-differentiation reference)) | Cellular viability [3]
1 | [Ca+2].[Cl-].[Cl-] [CaCl2] | 16791 CPM | 158% | – | – | –
2 | CC1=C(/C=C/C(C)=C/C=C/C(C)=C/CO)C(C)(C)CCC1 [retinol] | – | – | 56% | −44% | 103%

Reference: patent US20080194620A1, “Use of Benzodiazepine Receptor Ligands For Combating Signs of Ageing” (L'OREAL, priority 2004, published 2008)
